In experiment [1] the test system is T1, PpOTC.
T1 construct: gene OTC; mature form without predicted chloroplast transit peptide (TargetP-2.0, WoLF PSORT); N-terminal 6xHis (pDEST17), tag kept; E. coli; cloned cDNA 984 nt
The experiment can be described thus: phosphomolybdate Pi release assay, […] nm. The following applies: 50 mM Tris-HCl pH 8.0, 25 °C, ornithine + carbamoyl-P above Km. It counts as biochemical, Pinus pinaster.

Experiment [2] relates to T2, PpASSY.
T2 construct: gene ASSY; mature form without predicted chloroplast transit peptide (TargetP-2.0, WoLF PSORT); N-terminal 6xHis (pDEST17), tag kept; E. coli; cloned cDNA 1218 nt
Put plainly: PPi release, molybdate/ascorbate assay, […] nm. It counts as biochemical, Pinus pinaster. The following applies: 50 mM Tris-HCl pH 8, 25 °C, citrulline, aspartate, 3 mM ATP, 10 mM MgCl2, substrates above Km; partial inhibition.

Experiment [3] has as its system T3, PpASL.
T3 construct: gene ASL; mature form without predicted chloroplast transit peptide (TargetP-2.0, WoLF PSORT); N-terminal 6xHis (pDEST17), tag kept; E. coli; cloned cDNA 1398 nt
Put plainly: fumarate absorbance at […] nm. The format is biochemical, Pinus pinaster. The following applies: 50 mM Tris-HCl pH 8, 25 °C.

The test system of experiment [4] is T2, PpASSY. The experiment can be described thus: PPi release, molybdate/ascorbate assay, […] nm. The format is biochemical, Pinus pinaster. The following applies: 50 mM Tris-HCl pH 8, 25 °C, 3 mM ATP, 10 mM MgCl2.
Experiment [5] concerns T1, PpOTC. Put plainly: phosphomolybdate Pi release assay, […] nm; allosteric sigmoidal fit. The following applies: 50 mM Tris-HCl pH 8.0, 25 °C, read-out: S0.5. It counts as biochemical, Pinus pinaster.
The subject of experiment [6] is T3, PpASL. The experiment can be described thus: fumarate absorbance at […] nm. The following applies: 50 mM Tris-HCl pH 8, 25 °C, argininosuccinate above Km. It counts as biochemical, Pinus pinaster.
For experiment [7], the target named is recombinant Pinus pinaster argininosuccinate lyase (PpASL) (Pinus pinaster). Put plainly: SEC; desalted purified recombinant enzymes loaded separately on an ENrich SEC 650 column calibrated with protein standards (29-669 kDa); holoenzyme mass from the partition coefficient (Kav); elution followed at 280 nm and confirmed by western blot.
The target of experiment [8] is recombinant Pinus pinaster argininosuccinate synthetase (PpASSY) (Pinus pinaster). The experiment is described as above.
The target of experiment [9] is recombinant Pinus pinaster ornithine transcarbamylase (PpOTC) (Pinus pinaster). The experiment is described as above.

Consider 12 compounds from PMC7601404, “Enzymes Involved in the Biosynthesis of Arginine from Ornithine in Maritime Pine (Pinus pinaster Ait.)” (Plants, 2020).

Where two headings read alike, the source gives them in different places.

In the case of `N=C(N)NCCC[C@H](N)C(=O)O` [arginine], the values for the IC50 in the experiment on PpOTC [1] (negative allosteric) and with PpASSY [2] were 10.3 mM and 1.94 mM, respectively.
As to `N=C(NCCC[C@H](N)C(=O)O)N[C@@H](CC(=O)O)C(=O)O` [argininosuccinate], in the experiment with PpASL [3], the Km was found to be 220 ± 30 µM.
With `N[C@@H](CC(=O)O)C(=O)O` [aspartate], the Km in the experiment on PpASSY [4] (2 mM citrulline) came to 120 ± 50 µM.
Regarding `NC(=O)OP(=O)(O)O` [carbamoyl-P], the Km with PpOTC [5] (ornithine co-substrate, negative cooperativity) came out at 3480 ± 1400 µM.
As to `NC(=O)NCCC[C@H](N)C(=O)O` [citrulline], the Km in the experiment on PpASSY [4] (2 mM aspartate) was found to be 120 ± 30 µM.
For `NCCC[C@H](N)C(=O)O` [ornithine], the Km in the experiment with PpOTC [5] (carbamoyl-P co-substrate (5 mM), positive cooperativity) stood at 1280 ± 160 µM.
For the compound `NCCCCNCCCN` [spermidine], in the experiment on PpASL [6], the IC50 is 4.97 mM.
In turn, `NCCCNCCCCNCCCN` [spermine] registered an IC50 in the experiment on PpASL [6] of 19.2 mM.
Turning to `CC(C)[C@H](N)C(=O)O` [valine], in the experiment on PpOTC [1], the IC50 worked out at 7.19 mM.
Consider “recombinant Pinus pinaster argininosuccinate lyase (PpASL) (enzyme)”, for which, in [7], the stoichiometry N was found to be 4.
Regarding “recombinant Pinus pinaster argininosuccinate synthetase (PpASSY) (enzyme)”, the stoichiometry N in experiment [8] is 4.
“recombinant Pinus pinaster ornithine transcarbamylase (PpOTC) (enzyme)”: in experiment [9], the stoichiometry N was 3.
